Values joined by “and” are separate entries in the source; they are usually repeats but may differ in a detail not shown here. Equal values may be shown once. Toxic doses and inconclusive results are not listed.
System: BDF1 mice, P388 leukemia ip, median survival T/C
Assay: NCI In Vivo Anticancer Drug Screen. Data for tumor model P388 Leukemia (intraperitoneal) in B6D2F1 (BDF1) mice
Conditions: endpoint: median survival time, higher = longer survival
Outline: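 Survival ratio, drug arm over vehicle arm, in mice with a transplanted tumour.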

[1] = dose: 100.0 mg/kg/injection, schedule: Q01DX001 (ip), vehicle: Klucel (hydroxypropylcellulose) (HPC)
[2] = dose: 200.0 mg/kg/injection, schedule: Q01DX001 (ip), vehicle: Klucel (hydroxypropylcellulose) (HPC)
[3] = dose: 400.0 mg/kg/injection, schedule: Q01DX001 (ip), vehicle: Klucel (hydroxypropylcellulose) (HPC)
[4] = dose: 50.0 mg/kg/injection, schedule: Q04DX003 (ip), vehicle: saline with Tween-80
[5] = dose: 100.0 mg/kg/injection, schedule: Q04DX003 (ip), vehicle: saline with Tween-80
[6] = dose: 200.0 mg/kg/injection, schedule: Q04DX003 (ip), vehicle: saline with Tween-80
[7] = dose: 400.0 mg/kg/injection, schedule: Q04DX003 (ip), vehicle: saline with Tween-80
[8] = dose: 100.0 mg/kg/injection, schedule: Q01DX009 (ip), vehicle: saline with Tween-80
[9] = dose: 200.0 mg/kg/injection, schedule: Q01DX009 (ip), vehicle: saline with Tween-80
[10] = dose: 100.0 mg/kg/injection, schedule: Q04DX003 (ip), vehicle: Klucel (hydroxypropylcellulose) (HPC)
[11] = dose: 400.0 mg/kg/injection, schedule: Q04DX003 (ip), vehicle: Klucel (hydroxypropylcellulose) (HPC)
[12] = dose: 100.0 mg/kg/injection, schedule: Q01DX009 (ip), vehicle: Klucel (hydroxypropylcellulose) (HPC)
[13] = dose: 200.0 mg/kg/injection, schedule: Q01DX009 (ip), vehicle: Klucel (hydroxypropylcellulose) (HPC)
[14] = dose: 200.0 mg/kg/injection, schedule: Q04DX003 (ip), vehicle: Klucel (hydroxypropylcellulose) (HPC)
[15] = dose: 50.0 mg/kg/injection, schedule: Q01DX009 (ip), vehicle: saline with Tween-80

SMILES: NC(C(=O)O)c1cccc(Cl)c1 (stereo not drawn)
- T/C [1]: 91 % of control
- T/C [2]: 108 % of control
- T/C [3]: 95 % of control

SMILES: N#C/C(=C\c1ccncc1)c1csc2ccccc12
- T/C (dose: 50.0 mg/kg/injection, schedule: Q01DX011 (ip), vehicle: Klucel (hydroxypropylcellulose) (HPC)): 111 % of control
- T/C (dose: 100.0 mg/kg/injection, schedule: Q01DX011 (ip), vehicle: Klucel (hydroxypropylcellulose) (HPC)): 107 % of control
- T/C (dose: 200.0 mg/kg/injection, schedule: Q01DX011 (ip), vehicle: Klucel (hydroxypropylcellulose) (HPC)): 107 % of control
- T/C (dose: 400.0 mg/kg/injection, schedule: Q01DX011 (ip), vehicle: Klucel (hydroxypropylcellulose) (HPC)): 89 % of control

SMILES: CCCCCOC(CN)C(Cl)(Cl)Cl (stereo not drawn)
- T/C (dose: 25.0 mg/kg/injection, schedule: Q01DX009 (ip), vehicle: saline): 115 % of control
- T/C (dose: 33.0 mg/kg/injection, schedule: Q01DX009 (ip), vehicle: saline): 100 % of control and 118 % of control
- T/C (dose: 50.0 mg/kg/injection, schedule: Q01DX009 (ip), vehicle: saline): 113 % of control and 122 % of control
- T/C (dose: 75.0 mg/kg/injection, schedule: Q01DX009 (ip), vehicle: saline): 109 % of control

SMILES: CCCCCCCCCCCCCCCCCCSc1ccccc1
- T/C (dose: 6.25 mg/kg/injection, schedule: Q04DX003 (ip), vehicle: saline sonified): 110 % of control
- T/C (dose: 12.5 mg/kg/injection, schedule: Q04DX003 (ip), vehicle: saline sonified): 100 % of control
- T/C (dose: 25.0 mg/kg/injection, schedule: Q04DX003 (ip), vehicle: saline sonified): 110 % of control

SMILES: CCN(CC)c1ccc(NC(=O)NC(C)C)cc1
- T/C [4]: 90 % of control
- T/C [5]: 90 % of control
- T/C [6]: 86 % of control

SMILES: CCCSCCCCSCCC
- T/C [5]: 109 % of control
- T/C [6]: 113 % of control
- T/C [7]: 109 % of control

SMILES: COc1ccc2c(c1O)-c1cccc3c1[C@@H](C2)N(CCCl)CC3
- T/C (dose: 25.0 mg/kg/injection, schedule: Q04DX003 (ip), vehicle: saline with Tween-80): 161 % of control
- T/C [4]: 161 % of control

SMILES: Oc1c(Cl)cc(Cl)cc1/C=N/c1nc(-c2ccc(Cl)cc2)cs1
- T/C (dose: 0.78 mg/kg/injection, schedule: Q01DX009 (ip), vehicle: saline with Tween-80): 100 % of control
- T/C (dose: 1.56 mg/kg/injection, schedule: Q01DX009 (ip), vehicle: saline with Tween-80): 96 % of control
- T/C (dose: 3.12 mg/kg/injection, schedule: Q01DX009 (ip), vehicle: saline with Tween-80): 105 % of control

SMILES: NC1(C(=O)O)CCCC1
- T/C (dose: 20.0 mg/kg/injection, schedule: Q01DX010 (ip), vehicle: water): 100 % of control
- T/C (dose: 22.5 mg/kg/injection, schedule: Q01DX010 (ip), vehicle: saline): 100 % of control and 120 % of control
- T/C (dose: 25.0 mg/kg/injection, schedule: Q01DX009 (ip), vehicle: carboxymethylcellulose (CMC)): 93 % of control
- T/C (dose: 45.0 mg/kg/injection, schedule: Q01DX010 (ip), vehicle: saline): 110 % of control
- T/C (dose: 50.0 mg/kg/injection, schedule: Q01DX009 (ip), vehicle: carboxymethylcellulose (CMC)): 92 % of control
- T/C (dose: 80.0 mg/kg/injection, schedule: Q01DX010 (ip), vehicle: water): 110 % of control
- T/C (dose: 90.0 mg/kg/injection, schedule: Q01DX010 (ip), vehicle: saline): 185 % of control
- T/C [8]: 100 % of control
- T/C (dose: 200.0 mg/kg/injection, schedule: Q01DX009 (ip), vehicle: carboxymethylcellulose (CMC)): 87 % of control
- T/C [9]: 90 % of control

SMILES: COc1cc2c(cc1OC)C1CCc3cc(OC)c(OC)cc3C1N=C2 (stereo not drawn)
- T/C (dose: 20.0 mg/kg/injection, schedule: Q01DX009 (ip), vehicle: saline): 95 % of control
- T/C (dose: 40.0 mg/kg/injection, schedule: Q01DX009 (ip), vehicle: saline): 95 % of control
- T/C (dose: 80.0 mg/kg/injection, schedule: Q01DX009 (ip), vehicle: saline): 100 % of control
- T/C (dose: 120.0 mg/kg/injection, schedule: Q01DX009 (ip), vehicle: saline): 100 % of control
- T/C (dose: 240.0 mg/kg/injection, schedule: Q01DX009 (ip), vehicle: saline): 95 % of control

SMILES: Nc1c(O)nc[nH]c1=O
- T/C (dose: 1.56 mg/kg/injection, schedule: Q01DX009 (ip), vehicle: saline): 95 % of control
- T/C (dose: 3.13 mg/kg/injection, schedule: Q01DX009 (ip), vehicle: saline): 109 % of control and 100 % of control
- T/C (dose: 3.13 mg/kg/injection, schedule: Q04DX003 (ip), vehicle: saline): 95 % of control
- T/C (dose: 6.25 mg/kg/injection, schedule: Q01DX009 (ip), vehicle: saline): 100 % of control
- T/C (dose: 6.25 mg/kg/injection, schedule: Q04DX003 (ip), vehicle: saline): 86 % of control and 100 % of control
- T/C (dose: 12.5 mg/kg/injection, schedule: Q01DX009 (ip), vehicle: saline): 100 % of control
- T/C (dose: 12.5 mg/kg/injection, schedule: Q04DX003 (ip), vehicle: saline): 100 % of control

SMILES: COC(=O)c1cc(=O)n(-c2ccccc2C(F)(F)F)c(SC)n1
- T/C [10]: 116 % of control
- T/C [11]: 123 % of control

SMILES: CC1(C)N=C(N)N=C(N)N1c1ccc(CCc2ccccc2)c(Cl)c1
- T/C (dose: 4.0 mg/kg/injection, schedule: Q01DX009 (ip), vehicle: saline with Tween-80): 122 % of control

SMILES: C=C(C)C(=O)OC1CC2(C)OC2CC(OC(C)=O)/C(C)=C/C2OC(=O)C(=C)C21 (stereo not drawn)
- T/C (dose: 11.25 mg/kg/injection, schedule: Q01DX009 (ip), vehicle: saline): 118 % of control

SMILES: COc1cc2c(c(OC)c1OC)CC1c3c(cc4c(c3-2)OCO4)CCN1C (stereo not drawn)
- T/C (dose: 37.5 mg/kg/injection, schedule: Q01DX009 (ip), vehicle: Klucel (hydroxypropylcellulose) (HPC)): 98 % of control
- T/C (dose: 75.0 mg/kg/injection, schedule: Q01DX009 (ip), vehicle: Klucel (hydroxypropylcellulose) (HPC)): 102 % of control
- T/C (dose: 150.0 mg/kg/injection, schedule: Q01DX009 (ip), vehicle: Klucel (hydroxypropylcellulose) (HPC)): 124 % of control

SMILES: O=C1NC(=O)C(c2ccccc2)(c2ccc(Cl)cc2Cl)N1 (stereo not drawn)
- T/C [8]: 95 % of control
- T/C [5]: 100 % of control
- T/C [9]: 91 % of control
- T/C [6]: 90 % of control
- T/C [7]: 100 % of control

SMILES: CC(Oc1cc(Cl)ccc1Cl)C(=O)O (stereo not drawn)
- T/C [12]: 90 % of control
- T/C [10]: 100 % of control
- T/C [13]: 100 % of control
- T/C [14]: 104 % of control
- T/C (dose: 400.0 mg/kg/injection, schedule: Q01DX009 (ip), vehicle: Klucel (hydroxypropylcellulose) (HPC)): 113 % of control
- T/C [11]: 108 % of control

SMILES: CCOC(=O)C1Cc2ccccc2OC1=O (stereo not drawn)
- T/C (dose: 50.0 mg/kg/injection, schedule: Q01DX005 (ip), vehicle: saline with Tween-80): 105 % of control
- T/C (dose: 100.0 mg/kg/injection, schedule: Q01DX005 (ip), vehicle: saline with Tween-80): 100 % of control
- T/C (dose: 200.0 mg/kg/injection, schedule: Q01DX005 (ip), vehicle: saline with Tween-80): 91 % of control

SMILES: Cc1c(/C=C(\C#N)c2ccc([N+](=O)[O-])cc2)c(=O)n(-c2ccccc2)n1C
- T/C (dose: 100.0 mg/kg/injection, schedule: Q04DX003 (ip), vehicle: gum acacia): 103 % of control
- T/C (dose: 200.0 mg/kg/injection, schedule: Q04DX003 (ip), vehicle: gum acacia): 100 % of control
- T/C (dose: 400.0 mg/kg/injection, schedule: Q04DX003 (ip), vehicle: gum acacia): 100 % of control

SMILES: S=C(Nc1ccc(Cl)c(Cl)c1)N1c2ccccc2-n2cccc2C1c1cccnc1 (stereo not drawn)
- T/C (dose: 50.0 mg/kg/injection, schedule: Q01DX009 (ip), vehicle: Klucel (hydroxypropylcellulose) (HPC)): 124 % of control
- T/C [12]: 121 % of control
- T/C [13]: 117 % of control

SMILES: O=[N+]([O-])c1ccc(/C=C/C=C\c2cccc(S(=O)(=O)F)c2)c(Cl)c1
- T/C [1]: 90 % of control and 104 % of control
- T/C (dose: 100.0 mg/kg/injection, schedule: Q01DX009 (ip), vehicle: acetone): 112 % of control
- T/C [2]: 93 % of control and 100 % of control
- T/C (dose: 200.0 mg/kg/injection, schedule: Q01DX009 (ip), vehicle: acetone): 108 % of control
- T/C [3]: 100 % of control and 106 % of control
- T/C (dose: 400.0 mg/kg/injection, schedule: Q01DX009 (ip), vehicle: acetone): 95 % of control

SMILES: CCOC(=O)c1cc(C=O)c[nH]1
- T/C [15]: 93 % of control
- T/C [8]: 99 % of control
- T/C [9]: 101 % of control

SMILES: COc1ccc(Cl)cc1N
- T/C [15]: 95 % of control
- T/C [8]: 91 % of control

SMILES: CC(=O)OC1CCC2(C)C(CCC3(C)C2CC=C2C4C(C)C(C)CCC4(C)CCC23C)C1(C)C (stereo not drawn)
- T/C [10]: 100 % of control
- T/C [14]: 100 % of control
- T/C [11]: 90 % of control

— PubChem BioAssay AID328 (DTP/NCI, 2004)
